Data: patent US10166292B2, “Blocking IL-9 signaling in conjunction with chemotherapy to treat cancer” (Mayo Foundation for Medical Education and Research, priority 2014, dated 2019)

How the values were obtained:
[1] = tested on: CD4^+ T cells; assay: IFNγ ELISpot assay of enriched T cells; format: cell-based, mice; conditions: CD4^+ T cells plus tumor cell lines, no syngeneic antigen-presenting cells; positive control
Protocol: 1×10^5 4T1 splenocytes were co cultured with either 5×10^4 4T1 or TUBO cells. 5×10^4 4T1 lymphocytes were co cultured with either 2.5×10^4 4T1 or TUBO cells, following the manufacturers' instructions. CD4^+ and CD8^+ T cells were enriched from the spleens of naïve and 4T1-bearing WT and IL-9ko mice using a negative isolation kit (Invitrogen, Carlsbad Calif.). 1×10^5 T cells were co-cultured with 2.5×10^4 4T1 cells or with BM185, a non-specific control tumor line for 40 hours. Each experimental condition was executed in biological triplicates, which in turn comprised triplicate wells. Manufacturer's instructions were followed to reveal INFγ positive spots using the interferon gamma ELISpot kit from Mabtech (cat #3321-2HW-Plus). The plates were imaged and evaluated by ZellNet Consulting, Inc. (Fort Lee N.J.), and result expressed as average of triplicate spots per condition. Phorbol 12-myristate 13-acetate (PMA) was used as a positive control of cell activation.
These cells were co-cultured with 4T1 or BM185 cells, a BALB/c background murine leukemia cell line used here as a negative control (FIG. 4C). […]

[2] = tested on: 4T1 cells; assay: Experimental metastasis model, tail vein injection of 4T1 cells, foci in the lung; format: in vivo; conditions: IL-9ko mice, 1×10^5 4T1 cells tail vein; IL-9ko without IL-9: 3, WT: 87; p=0.043
Text: Since few IL-9ko mice that developed 4T1 tumors never had evidence of macro metastases in the lungs, an experimental metastasis model was used to verify whether IL-9 plays a role in 4T1 seeding in the lung. […] Addition of recombinant IL-9 led to enhanced 4T1 seeding in the lungs of IL-9ko mice (an average of 13 foci per lung) (p=0.043, FIGS. 7A and 7B).

Molecule | IFNγ^+ spots [1] | average foci per lung [2]
CCCCCCCCCCCCCC(=O)O[C@@H]1[C@@H](C)[C@@]2(O)[C@@H](C=C(CO)C[C@]3(O)C(=O)C(C)=C[C@@H]23)[C@@H]2C(C)(C)[C@]12OC(C)=O [PMA, Phorbol 12-myristate 13-acetate] | produced IFNγ^+ spots only if exposed to PMA | –
recombinant IL-9: Recombinant IL-9 cytokine added to IL-9ko mice in the 4T1 lung metastasis model (protein, UniProt P15247 19-144, looked up) Interleukin-9: QRCSTTWGIRDTNYLIENLKDDPPSKCSCSGNVTSCLCLSVPTDDCTTPCYREGLLQLTNATQKSRLLPVFHRVKRIVEVLKNITCPSFSCEKPCNQTMAGNTLSFLKSLLGTFQKTEMQRQKSRP | – | 13 foci per lung
